Data on one compound can be found in BindingDB's records for PubMed 38943600 (China Pharmaceutical University).

As usually defined, the Kd is a measure of binding affinity in units of concentration.

This assay has as its target Inactive tyrosine-protein kinase transmembrane receptor ROR1 (Homo sapiens, UniProt Q01973). The assay is described as follows: Binding affinity to N-terminal His/GST-tagged recombinant human ROR1 (453 to 783 residues) extracted from baculovirus infected insect cells assessed as dissociation constant by SPR analysis. In general terms: In SPR one partner is held on a chip, and binding of the other changes the refractive index at the surface.

*1 amine or outer side, *2 acyl side, *3 side chain or, on linkers, in order; H or OH if unused. Where a SMILES comes first, the peptide text is derived from it. The star is where a group is joined. ξ: configuration not given here. X6 = Nc1ccn(C2OC(COC(=O)CCCCCN3C(=O)CC(*)C3=O)C(O)C2(F)F)c(=O)n1; C18 diacid = O=C(O)CCCCCCCCCCCCCCCCC(=O)*; ξγGlu = O=C(O)C(CCC(=O)[*:2])N[*:1]; AEEA = NCCOCCOCC(=O)O

Chain of Inactive tyrosine-protein kinase transmembrane receptor ROR1 (Q01973 whole entry, the tested form may be a part): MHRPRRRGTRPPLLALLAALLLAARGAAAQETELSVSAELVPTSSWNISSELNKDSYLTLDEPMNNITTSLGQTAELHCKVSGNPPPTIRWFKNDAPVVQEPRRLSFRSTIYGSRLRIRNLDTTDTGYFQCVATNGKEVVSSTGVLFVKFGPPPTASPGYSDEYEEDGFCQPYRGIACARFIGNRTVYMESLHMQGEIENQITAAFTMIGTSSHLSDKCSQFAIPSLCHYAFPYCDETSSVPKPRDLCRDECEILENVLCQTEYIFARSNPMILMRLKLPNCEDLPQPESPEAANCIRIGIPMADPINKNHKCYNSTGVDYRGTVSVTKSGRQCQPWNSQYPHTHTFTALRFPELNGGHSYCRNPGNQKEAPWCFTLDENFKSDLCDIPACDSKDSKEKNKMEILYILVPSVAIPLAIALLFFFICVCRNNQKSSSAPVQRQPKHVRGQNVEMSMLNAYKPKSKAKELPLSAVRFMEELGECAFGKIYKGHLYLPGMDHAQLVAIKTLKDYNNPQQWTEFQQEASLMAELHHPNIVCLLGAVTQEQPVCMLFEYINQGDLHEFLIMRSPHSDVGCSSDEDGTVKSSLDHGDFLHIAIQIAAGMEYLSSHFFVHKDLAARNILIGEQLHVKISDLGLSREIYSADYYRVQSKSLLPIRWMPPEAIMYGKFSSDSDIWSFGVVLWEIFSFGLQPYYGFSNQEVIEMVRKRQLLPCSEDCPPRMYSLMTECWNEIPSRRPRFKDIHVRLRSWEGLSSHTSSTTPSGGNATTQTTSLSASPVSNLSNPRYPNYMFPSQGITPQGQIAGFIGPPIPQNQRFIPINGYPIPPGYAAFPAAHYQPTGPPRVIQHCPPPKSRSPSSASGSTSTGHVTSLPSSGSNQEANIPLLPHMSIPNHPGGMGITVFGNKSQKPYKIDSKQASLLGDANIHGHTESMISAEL

On to `CC[C@H](C)[C@H](NC(=O)[C@H](CC(=O)O)NC(=O)[C@H](CO)NC(=O)CNC(=O)[C@H](CSC1CC(=O)N(CCCCCC(=O)OCC2OC(n3ccc(N)nc3=O)C(F)(F)C2O)C1=O)NC(=O)CNC(=O)[C@H](CCCCN)NC(=O)COCCOCCNC(=O)COCCOCCNC(=O)CCC(NC(=O)CCCCCCCCCCCCCCCCC(=O)O)C(=O)O)C(=O)N[C@@H](CC(N)=O)C(=O)N[C@@H](CC(=O)O)C(=O)N[C@@H](CCCNC(=N)N)C(=O)N[C@@H](CCC(N)=O)C(=O)N[C@H](C(=O)N1CCC[C@H]1C(=O)NCC(=O)N[C@@H](Cc1ccc(O)cc1)C(=O)N[C@@H](CO)C(=O)N[C@H](C(=O)N[C@@H](Cc1ccc(O)cc1)C(=O)N[C@@H](Cc1c[nH]c2ccccc12)C(=O)NCC(=O)N[C@@H](CC(=O)O)C(=O)N[C@@H](Cc1ccccc1)C(N)=O)[C@@H](C)O)[C@@H](C)CC` (stereo partly specified) ({C18 diacid-ξγGlu-AEEA-AEEA}-KGC(X6)GSDINDRQIPGYSTYWGDF-NH2), for which the Kd turned out to be 1.2 nM.
